Some results are limits rather than exact numbers.

Consider eight molecules from US8003659B2, “Macrocyclic serine protease inhibitors” (Indenix Pharmaceuticals, Inc., priority 2008, dated 2011).

In one data set the target is T1, HCV NS3-NS4A protease (Hepatitis C virus genotype 1b, UniProt P26663).
T1 construct: made in house
Nature of the data set: HCV Protease Assay (SensoLyte 620 HCV Protease Assay kit). The conditions noted are these: 1.2 nM HCV NS3-NS4A protease, 60 min at room temperature, 5% DMSO. Format: biochemical. As for the experimental part: General procedure: Measurement of the inhibitory effect of compounds on HCV protease activity was performed with the SensoLyte™ 620 HCV Protease Assay kit from AnaSpec, Inc. (San Jose, Calif.) under conditions described by the supplier using 1.2 nM HCV NS3-NS4A protease, which was obtained according to Taremi et al. (Protein Science, 1998, 7, 2143-2149). The compounds were tested at a variety of concentrations in assay buffer containing a final DMSO concentration of 5%. Reactions were allowed to proceed for 60 min at room temperature and fluorescence measurements were recorded with a Tecan Infinity Spectrofluorimeter. The IC50 values were determined from the percent inhibition versus concentration data using a sigmoidal non-linear regression analysis based on four parameters with Tecan Magellan software.

Data set [1] concerns Huh-7 cells containing HCV Con1 subgenomic replicon (GS4.1 cells). Nature of the data set: HCV Replicon Assay (NS4A ELISA). Format: cell-based. Conditions: Hepatitis C virus, Huh-7, 72 hr, NS4A protein by ELISA. As for the experimental part: General procedure: Huh-7 cells containing HCV Con1 subgenomic replicon (GS4.1 cells) were grown in Dulbecco's Modified Eagle Medium (DMEM) supplemented with 10% fetal bovine serum (FBS), 2 mM L-glutamine, 110 mg/L sodium pyruvate, 1× non-essential amino acids, 100 U/mL penicillin-streptomycin, and 0.5 mg/mL G418 (Invitrogen). For dose-response testing, the cells were seeded in 96-well plates at 7.5×10^3 cells/well in a volume of 50 μL, and incubated at 37° C./5% CO2. Three hours after plating, 50 μL of ten 2-fold serial dilutions of compounds (highest concentration, 75 μM) were added, and cell cultures were incubated at 37° C./5% CO2 in the presence of 0.5% DMSO. Alternatively, compounds were tested at a single concentration of 15 μM. In all cases, Huh-7 cells lacking the HCV replicon served as negative control. The cells were incubated in the presence of compounds for 72 hr after which they were monitored for expression of the NS4A protein by enzyme-linked immunosorbent assay (ELISA). For this, the plates were then fixed for 1 min with acetone/methanol (1:1, v/v), washed twice with phosphate-buffered saline (PBS), 0.1% Tween 20, blocked for 1 hr at room temperature with TNE buffer containing 10% FBS and then incubated for 2 hr at 37° C. with the anti-NS4A mouse monoclonal antibody A-236 (ViroGen) diluted in the same buffer. After washing three times with PBS, 0.1% Tween 20, the cells were incubated 1 hr at 37° C. with anti-mouse immunoglobulin G-peroxidase conjugate in TNE, 10% FBS. After washing as described above, the reaction was developed with O-phenylenediamine (Zymed). The reaction was stopped after 30 min with 2 NH2SO4, and absorbance was read at 492 nm using Sunrise Tecan spectrophotometer. EC50 values were determined from the % inhibition versus concentration data using a sigmoidal non-linear regression analysis based on four parameters with Tecan Magellan software. When screening at a single concentration, the results were expressed as % inhibition at 15 μM.
(In general: In antiviral work, replicon cells carry a viral genome segment that copies itself.)

Data set [2] in a line: Cytotoxicity evaluation (Cell Titer 96 AQueous One Solution Cell Proliferation Assay). In kind it is cell-based. The conditions noted are these: human; GS4.1 cells, cellular viability. The protocol:
For cytotoxicity evaluation, GS4.1 cells were treated with compounds as described above and cellular viability was monitored using the Cell Titer 96 AQueous One Solution Cell Proliferation Assay (Promega). CC50 values were determined from the % cytotoxicity versus concentration data with Tecan Magellan software as described above.

T1 sequence (P26663 1027-1208): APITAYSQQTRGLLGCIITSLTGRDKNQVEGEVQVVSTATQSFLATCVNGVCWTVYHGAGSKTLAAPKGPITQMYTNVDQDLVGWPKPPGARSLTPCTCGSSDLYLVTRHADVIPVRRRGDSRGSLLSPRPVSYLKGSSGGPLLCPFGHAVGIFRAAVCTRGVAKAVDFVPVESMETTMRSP

Usually IC50 stands for the concentration that inhibits the measured activity by half. The low end stands for inhibition by little substance, the high end for a need for much substance. What is called EC50 is the midpoint of the concentration-response curve. One may read the CC50 as the concentration at which the toxic effect on the cells reaches its halfway point. A low value points to greater toxicity to the cells. `C#Cc1csc(-c2cc(O[C@H]3C[C@H]4C(=O)N(C)CCCC/C=C\[C@@H]5C[C@@]5(C(=O)NS(=O)(=O)C5CC5)NC(=O)N4C3)c3ccc(OC)c(Cl)c3n2)n1` [Compound G1, (Z)-(4R,6S,15S,17S)-[17-[8-chloro-7-methoxy-2-(4-ethynylthiazol-2-yl)quinolin-4-yloxy]-13-N-methyl-2,14-dioxo-1,3,13-triazatricyclo-[13.3.0.0]octadec-7-en-4-yl]carbonyl(cyclopropyl)sulfonamide]: the IC50 on HCV NS3-NS4A protease is < 1 µM. Further, the EC50 in data set [1] is < 1 µM. The molecule also displayed a CC50 in data set [2] of 10 to 75 µM.
Take `C#Cc1csc(-c2cc(O[C@H]3C[C@H]4C(=O)N(C)CCCC/C=C\[C@@H]5C[C@@]5(C(=O)NS(=O)(=O)C5(C)CC5)NC(=O)N4C3)c3ccc(OC)c(Cl)c3n2)n1` [Compound G2, (Z)-(4R,6S,15S,17S)-[17-[8-chloro-7-methoxy-2-(4-ethynylthiazol-2-yl)quinolin-4-yloxy]-13-N-methyl-2,14-dioxo-1,3,13-triazatricyclo-[13.3.0.0]octadec-7-en-4-yl]carbonyl(1-methyl-cyclopropyl)sulfonamide]: at HCV NS3-NS4A protease, the IC50 was < 1 µM. Further, the EC50 in data set [1] is < 1 µM. Moreover, the CC50 in data set [2] was 10 to 75 µM.
In the case of `C#Cc1csc(-c2cc(O[C@H]3C[C@H]4C(=O)N(C)CCCC/C=C\[C@@H]5C[C@@]5(C(=O)NS(=O)(=O)C5CC5)NC(=O)N4C3)c3ccc(OC)c(C)c3n2)n1` [Compound G3, (Z)-(4R,6S,15S,17S)-[17-[7-methoxy-8-methyl-2-(4-ethynylthiazol-2-yl)quinolin-4-yloxy]-13-N-methyl-2,14-dioxo-1,3,13-triazatricyclo-[13.3.0.0]octadec-7-en-4-yl]carbonyl(cyclopropyl)sulfonamide], the IC50 on HCV NS3-NS4A protease is < 1 µM. Besides, the EC50 in data set [1] was < 1 µM. The same molecule registered a cytotoxic concentration (CC50) in data set [2] of 10 to 75 µM.
Consider `C#Cc1csc(-c2cc(O[C@H]3C[C@H]4C(=O)N(C)CCCC/C=C\[C@@H]5C[C@@]5(C(=O)NS(=O)(=O)C5(C)CC5)NC(=O)N4C3)c3ccc(OC)c(C)c3n2)n1` [Compound G4, (Z)-(4R,6S,15S,17S)-[17-[7-methoxy-8-methyl-2-(4-ethynylthiazol-2-yl)quinolin-4-yloxy]-13-N-methyl-2,14-dioxo-1,3,13-triazatricyclo-[13.3.0.0]octadec-7-en-4-yl]carbonyl (1-methylcyclopropyl)sulfonamide], for which the IC50 on HCV NS3-NS4A protease is < 1 µM. Moreover, the EC50 in data set [1] is < 1 µM. In data set [2], this molecule displayed a CC50 of 10 to 75 µM.
For `COc1ccc2c(O[C@H]3C[C@H]4C(=O)N(C)CCCC/C=C\[C@@H]5C[C@@]5(C(=O)NS(=O)(=O)C5CC5)NC(=O)N4C3)cc(-c3csc(C(F)(F)F)n3)nc2c1Cl` [Compound O1, (Z)-(4R,6S,15S,17S)-[17-[8-chloro-7-methoxy-2-(2-trifluoromethylthiazol-4-yl)quinolin-4-yloxy]-13-N-methyl-2,14-dioxo-1,3,13-triazatricyclo-[13.3.0.0]octadec-7-en-4-yl]carbonyl-(cyclopropyl)sulfonamide], the IC50 against HCV NS3-NS4A protease is < 1 µM. Besides, in data set [1], the EC50 is < 1 µM. In addition, the CC50 in data set [2] fell in the range of 10 to 75 µM.
On to `COc1ccc2c(O[C@H]3C[C@H]4C(=O)N(C)CCCC/C=C\[C@@H]5C[C@@]5(C(=O)NS(=O)(=O)C5(C)CC5)NC(=O)N4C3)cc(-c3csc(C(F)(F)F)n3)nc2c1Cl` [Compound O2, (Z)-(4R,6S,15S,17S)-[17-[8-chloro-7-methoxy-2-(2-trifluoromethylthiazol-4-yl)quinolin-4-yloxy]-13-N-methyl-2,14-dioxo-1,3,13-triazatricyclo-[13.3.0.0]octadec-7-en-4-yl]carbonyl-(1-methylcyclopropyl)sulfonamide], for which, on HCV NS3-NS4A protease, the IC50 was < 1 µM. For the same molecule, the EC50 in data set [1] is < 1 µM. Besides, in data set [2], the CC50 is 10 to 75 µM.
In the case of `COc1ccc2c(O[C@H]3C[C@H]4C(=O)N(C)CCCC/C=C\[C@@H]5C[C@@]5(C(=O)NS(=O)(=O)C5CC5)NC(=O)N4C3)cc(-c3csc(C(F)(F)F)n3)nc2c1C` [Compound O3, (Z)-(4R,6S,15S,17S)-[17-[7-methoxy-8-methyl-2-(2-trifluoromethylthiazol-4-yl)quinolin-4-yloxy]-13-N-methyl-2,14-dioxo-1,3,13-triazatricyclo-[13.3.0.0]octadec-7-en-4-yl]carbonyl-(cyclopropyl)sulfonamide], on HCV NS3-NS4A protease, the IC50 is < 1 µM. Further, the EC50 in data set [1] was < 1 µM. The CC50 in data set [2] fell in the range of 10 to 75 µM.
For `COc1ccc2c(O[C@H]3C[C@H]4C(=O)N(C)CCCC/C=C\[C@@H]5C[C@@]5(C(=O)NS(=O)(=O)C5(C)CC5)NC(=O)N4C3)cc(-c3csc(C(F)(F)F)n3)nc2c1C` [Compound O4, (Z)-(4R,6S,15S,17S)-[17-[7-methoxy-8-methyl-2-(2-trifluoromethylthiazol-4-yl)quinolin-4-yloxy]-13-N-methyl-2,14-dioxo-1,3,13-triazatricyclo-[13.3.0.0]octadec-7-en-4-yl]carbonyl-(1-methylcyclopropyl)sulfonamide], at HCV NS3-NS4A protease, the IC50 was < 1 µM. For the same molecule, the EC50 in data set [1] was < 1 µM. The CC50 in data set [2] was > 75 µM.
